What was measured:
Format in all cases: in vivo
Setaria viridis = experiment: Post-emergence herbicidal action against SETVI; settings: 20 g a.i./ha, visual rating about 3 weeks after treatment
Protocol: (§1) Post-Emergence Herbicidal Action Against Harmful Plants and Crop Plant Compatibility Seeds of monocotyledonous and dicotyledonous weeds and crop plants are placed in sandy loam in plastic or wood-fibre pots, covered with soil and cultivated in a greenhouse under controlled growth conditions. 2 to 3 weeks after sowing, the test plants are treated at the one-leaf stage. The compounds of the invention, formulated in the form of wettable powders (WP) or as emulsion concentrates (EC), are then sprayed onto the green parts of the plants as aqueous suspension or emulsion with addition of 0.5% additive at a water application rate of 600 l/ha (converted). After the test plants have been kept in the greenhouse under optimum growth conditions for about 3 weeks, the activity of the preparations is rated visually in comparison to untreated controls. For example, 100% activity=the plants have died, 0% activity=like control plants. [table]

Abutilon theophrasti = experiment: Post-emergence herbicidal action against ABUTH; settings: 20 g a.i./ha, visual rating about 3 weeks after treatment
Protocol: as §1

Amaranthus retroflexus = experiment: Post-emergence herbicidal action against AMARE; settings: 20 g a.i./ha
Protocol: as §1

Veronica persica = experiment: Post-emergence herbicidal action against VERPE; settings: 20 g a.i./ha
Protocol: as §1

Avena fatua = experiment: Post-emergence herbicidal action against AVEFA; settings: 20 g a.i./ha, visual rating about 3 weeks after treatment
Protocol: as §1

Matricaria inodora = experiment: Post-emergence herbicidal action against MATIN; settings: 20 g a.i./ha
Protocol: as §1

Lolium rigidum = experiment: Post-emergence herbicidal action against LOLRI; settings: 20 g a.i./ha, visual rating about 3 weeks after treatment
Protocol: as §1

Pharbitis purpurea = experiment: Post-emergence herbicidal action against PHBPU; settings: 20 g a.i./ha
Protocol: as §1

Echinochloa crus-galli = experiment: Post-emergence herbicidal action against ECHCG; settings: 20 g a.i./ha, visual rating about 3 weeks after treatment
Protocol: as §1

DIGSA = experiment: Post-emergence herbicidal action against DIGSA; settings: 20 g a.i./ha, visual rating about 3 weeks after treatment
Protocol: as §1, with “plants.” for “plants. [table]”

Polygonum convolvulus = experiment: Post-emergence herbicidal action against POLCO; settings: 20 g a.i./ha
Protocol: as §1

Alopecurus myosuroides = experiment: Post-emergence herbicidal action against ALOMY; settings: 20 g a.i./ha, visual rating about 3 weeks after treatment
Protocol: as §1

Row | SMILES | Herbicidal action against [%] SETVI (Setaria viridis) [%] | Herbicidal action against [%] ABUTH (Abutilon theophrasti) [%] | Herbicidal action against [%] AMARE (Amaranthus retroflexus) [%] | Herbicidal action against [%] VERPE (Veronica persica) [%] | Herbicidal action against [%] AVEFA (Avena fatua) [%] | Herbicidal action against [%] MATIN (Matricaria inodora) [%] | Herbicidal action against [%] LOLRI (Lolium rigidum) [%] | Herbicidal action against [%] PHBPU (Pharbitis purpurea) [%] | Herbicidal action against [%] ECHCG (Echinochloa crus-galli) [%] | Herbicidal action against [%] DIGSA (DIGSA) [%] | Herbicidal action against [%] POLCO (Polygonum convolvulus) [%] | Herbicidal action against [%] ALOMY (Alopecurus myosuroides) [%]
1 | COC1(C(=O)NC2C=CC(C(=O)OCCSC(=O)C(C)C)C2)CC(c2cc(F)cc(F)c2)=NO1 (stereo not drawn) [Example I-23] | 80 | 80 | 80 | 90 | 90 | 80 | 90 | 80 | 90 | 90 | 80 | 90
2 | CC(C)CSCCOC(=O)C1C=CC(NC(=O)C2(C)CC(c3cc(F)cc(F)c3)=NO2)C1 (stereo not drawn) [Example I-08] | 90 | 90 | 90 | 80 | 90 | 80 | 90 | 90 | 90 | 90 | 90 | 100
3 | COC(=O)CSCCOC(=O)C1C=CC(NC(=O)C2(C)CC(c3cc(F)cc(F)c3)=NO2)C1 (stereo not drawn) [Example I-64] | 80 | 80 | 90 | 80 | 90 | 90 | 90 | 80 | 90 | 90 | 80 | 90
4 | CC(C)SCCOC(=O)C1C=CC(NC(=O)C2(C)CC(c3cc(F)cc(F)c3)=NO2)C1 (stereo not drawn) [Example I-10] | 90 | 90 | 90 | 90 | 90 | 80 | 100 | 80 | 90 | 90 | 90 | 100
5 | C[S+]([O-])CCOC(=O)C1C=CC(NC(=O)C2(C)CC(c3cc(F)cc(F)c3)=NO2)C1 (mixture of isomers) [Example I-66] | – | – | 80 | – | 80 | 80 | 80 | 80 | 80 | – | 80 | 90
6 | COC1(C(=O)NC2C=CC(C(=O)OCCSC)C2)CC(c2cc(F)cc(F)c2)=NO1 (stereo not drawn) [Example I-20] | 80 | 80 | 80 | 80 | 90 | 80 | 90 | 80 | 90 | 80 | – | 90
7 | CC1(C(=O)NC2C=CC(C(=O)OCCSC(F)(F)F)C2)CC(c2cc(F)cc(F)c2)=NO1 (stereo not drawn) [Example I-13] | 80 | 80 | – | 80 | 90 | 80 | 80 | – | – | 80 | – | 90
